The numbers were not newly measured in US12642292B2, “Multi-compartment oral pouched product” (NICOVENTURES TRADING LIMITED, priority 2021, dated 2026), which cites them from elsewhere.

Each structure is given as a SMILES string.

The conditions of series [1]: for solubility in water / aqueous environment: for CBD aqueous environment (e.g., saliva).
For series [2] the following is noted: when isolated; converts via isomerization into trans-bixin.

With `CC(/C=C/C=C(C)/C=C/C(=O)O)=C\C=C\C=C(C)\C=C\C=C(C)\C=C\C(=O)O` (stereo in doubt) [norbixin, (2E,4E,6E,8E,10E,12E,14E,16E,18E)-4,8,13,17-tetramethylicosa-2,4,6,8,10,12,14,16,18-nonaenedioic acid], the “solubility in water / aqueous environment” value in series [1] is “water soluble”.
`C=C(C)[C@@H]1CCC(C)=C[C@H]1c1c(O)cc(CCCCC)cc1O` [CBD, cannabidiol, reference compound]: in series [1], the “solubility in water / aqueous environment” value was “insoluble in an aqueous environment”.
For `COC(=O)/C=C/C(C)=C\C=C\C(C)=C\C=C\C=C(C)\C=C\C=C(C)\C=C\C(=O)O` [bixin], in series [1] (fats and alcohols), the “solubility in fats and alcohols” value was “soluble in fats and alcohols”. Also, in series [1], the “solubility in water / aqueous environment” value is “insoluble in water”. In addition, the chemical stability result in series [2] is given as “chemically unstable when isolated”.
